Results as given in patent US12180192B2, “Modulators of THR-β and methods of use thereof” (ALIGOS THERAPEUTICS, INC., priority 2019, dated 2024).

Experiments:
THR alpha = target: T1, THR alpha (Homo sapiens, UniProt P10827); experiment: HEK293T THR alpha/RXR luciferase reporter assay (Assay 2); type: cell-based; settings: Assay 2; for Emax: HEK-293T, Table 5, THRα, read-out: Activity category Assay 2 THRα (Emax); for EC50: Table 4, THR-alpha, read-out: Activity category Assay 2 (EC50, THR-alpha agonist activity)
T1 construct: expressed in transfected cells; host or cells: HEK293T (ATCC CRL-3216)
T1 sequence (P10827 1-410 isoform P10827-2): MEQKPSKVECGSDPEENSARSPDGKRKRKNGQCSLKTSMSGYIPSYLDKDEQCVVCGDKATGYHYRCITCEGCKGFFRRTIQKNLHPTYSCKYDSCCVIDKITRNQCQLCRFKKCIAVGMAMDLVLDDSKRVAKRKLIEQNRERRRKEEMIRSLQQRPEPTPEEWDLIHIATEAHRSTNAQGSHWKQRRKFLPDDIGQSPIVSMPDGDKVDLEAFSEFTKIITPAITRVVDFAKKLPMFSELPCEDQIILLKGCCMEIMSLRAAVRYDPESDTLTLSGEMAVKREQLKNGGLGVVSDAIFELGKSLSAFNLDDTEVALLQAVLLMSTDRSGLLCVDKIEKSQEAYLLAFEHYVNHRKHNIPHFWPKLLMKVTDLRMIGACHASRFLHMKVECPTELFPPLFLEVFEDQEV
T1 sequence (P19793 1-462 partner): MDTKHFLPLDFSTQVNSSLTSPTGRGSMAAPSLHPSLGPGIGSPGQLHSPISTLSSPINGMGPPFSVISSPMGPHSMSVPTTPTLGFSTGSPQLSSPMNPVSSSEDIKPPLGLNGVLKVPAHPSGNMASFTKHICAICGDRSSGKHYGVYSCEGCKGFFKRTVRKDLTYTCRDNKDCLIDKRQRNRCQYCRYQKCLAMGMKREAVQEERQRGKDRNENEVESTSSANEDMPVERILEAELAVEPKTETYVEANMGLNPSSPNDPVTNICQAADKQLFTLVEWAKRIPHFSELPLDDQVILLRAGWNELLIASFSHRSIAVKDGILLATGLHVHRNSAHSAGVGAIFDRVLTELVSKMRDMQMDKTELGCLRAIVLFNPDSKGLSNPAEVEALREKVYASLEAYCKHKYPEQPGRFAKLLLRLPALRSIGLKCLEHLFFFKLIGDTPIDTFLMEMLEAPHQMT
Outline: (§1)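 Compounds tested as ten-point five-fold dilution series for 18-24 h on transiently transfected HEK293T cells carrying TRE-driven luciferase plus RXR and either THR alpha or beta expression plasmids. Read-out by One-Glo luminescence, expressed as percent agonism relative to negative and positive controls.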

[1] = target: T2, human thyroid receptor beta ligand-binding domain (LBD) (Homo sapiens, UniProt P10828); experiment: TR-FRET thyroid receptor beta coactivator assay (THR biochemical assay, Assay 1); settings: for EC50: THR-beta, TR-FRET coactivator assay, read-out: Activity category Assay 1 (EC50, THR-beta agonist); for Emax: Table 5, Assay 1, THRβ, read-out: Activity category Assay 1 THRβ (Emax)
T2 construct: purchased Invitrogen
T2 sequence (P10828 217-461 limits assumed): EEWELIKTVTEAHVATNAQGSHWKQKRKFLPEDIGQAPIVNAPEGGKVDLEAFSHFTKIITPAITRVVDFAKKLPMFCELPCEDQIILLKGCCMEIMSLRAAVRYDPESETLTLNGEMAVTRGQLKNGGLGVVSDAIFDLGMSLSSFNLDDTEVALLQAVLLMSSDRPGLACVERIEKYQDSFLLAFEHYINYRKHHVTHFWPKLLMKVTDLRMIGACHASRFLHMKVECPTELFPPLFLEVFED
Outline: (§2)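 Agonist-driven coactivator recruitment measured by TR-FRET: terbium anti-GST antibody (2 nM) bound to GST-LBD of TRβ or TRα (1 nM final, stated for β), with fluorescein SRC2-2 peptide at 200 nM. Compounds at 1% DMSO. Read after 1 h, room temperature, protected from light.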

[2] = target: T3, human thyroid receptor alpha ligand-binding domain (LBD) (Homo sapiens, UniProt P10827); experiment: TR-FRET thyroid receptor alpha coactivator assay (THR biochemical assay, Assay 1); settings: for EC50: Table 4, THR-alpha, read-out: Activity category Assay 1 (EC50, THR-alpha agonist activity); for Emax: Table 5, THRα, read-out: Activity category Assay 1 THRα (Emax)
T3 construct: purchased Invitrogen
Outline: as §2

THR beta = target: T4, THR beta (Homo sapiens, UniProt P10828); experiment: HEK293T THR beta/RXR luciferase reporter assay (Assay 2); type: cell-based; settings: for Emax: HEK-293T, Table 5, Assay 2, THRβ, read-out: Activity category Assay 2 THRβ (Emax); for EC50: THR-beta, HEK293T reporter assay, read-out: Activity category Assay 2 (EC50, THR-beta agonist)
T4 construct: expressed in transfected cells; host or cells: HEK293T (ATCC CRL-3216)
T4 sequence (P10828 1-461): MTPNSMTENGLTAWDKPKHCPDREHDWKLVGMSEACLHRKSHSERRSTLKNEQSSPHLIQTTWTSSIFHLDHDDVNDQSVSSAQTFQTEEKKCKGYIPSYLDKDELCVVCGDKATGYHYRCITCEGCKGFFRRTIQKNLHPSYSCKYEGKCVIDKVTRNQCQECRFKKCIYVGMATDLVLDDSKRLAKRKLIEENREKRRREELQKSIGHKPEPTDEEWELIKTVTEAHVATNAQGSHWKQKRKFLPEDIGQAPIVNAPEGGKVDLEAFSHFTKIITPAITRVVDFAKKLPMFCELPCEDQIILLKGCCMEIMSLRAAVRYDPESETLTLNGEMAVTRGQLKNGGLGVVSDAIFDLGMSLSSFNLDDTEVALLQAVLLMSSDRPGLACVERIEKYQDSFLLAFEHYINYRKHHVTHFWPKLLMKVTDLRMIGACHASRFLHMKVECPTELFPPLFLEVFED
T4 sequence (P19793 1-462 partner): T1 sequence (P19793 1-462 partner)
Outline: as §1

Emax (THR alpha) [%] | EC50 (THR alpha) [nM] | EC50 [1] [nM] | Emax [1] [%] | EC50 [2] [nM] | Emax [2] [%] | Emax (THR beta) [%] | EC50 (THR beta) [nM] | SMILES
> 75 | 250 to 1000 | < 50 | < 50 | 250 to 1000 | 50 to 75 | > 75 | 50 to 250 | CC(c1cc(Oc2c(Cl)cc(-n3nc(N)c(=O)[nH]c3=O)cc2Cl)n[nH]c1=O)C1CC(F)(F)C1 (centres unmarked) [Compound 61, 6-amino-2-[3,5-dichloro-4-([5-[1-(3,3-difluorocyclobutyl)ethyl]-6-oxo-1H-pyridazin-3-yl]oxy)phenyl]-4H-1,2,4-tri-azine-3,5-dione]
50 to 75 | 250 to 1000 | 50 to 250 | < 50 | 250 to 1000 | < 50 | > 75 | 50 to 250 | Nc1nn(-c2cc(Cl)c(Oc3cc(-c4ccccc4)c(=O)[nH]n3)c(Cl)c2)c(=O)[nH]c1=O [Compound 63, 6-amino-2-[3,5-dichloro-4-[(6-hydroxy-5-phenylpyridazin-3-yl)oxy]phenyl]-4H-1,2,4-triazine-3,5-dione]
< 50 | > 10000 | > 25000 | < 50 | > 25000 | < 50 | < 50 | > 10000 | Nc1nn(-c2cc(Cl)c(Oc3n[nH]c(=O)cc3-c3ccccc3)c(Cl)c2)c(=O)[nH]c1=O [Compound 63-A, 6-amino-2-(3,5-dichloro-4-((6-oxo-4-phenyl-1,6-dihydropyridazin-3-yl)oxy)phenyl)-1,2,4-triazine-3,5(2H,4H)-dione]
< 50 | 250 to 1000 | < 50 | < 50 | 250 to 1000 | < 50 | 50 to 75 | 50 to 250 | Cc1cccc(-c2cc(Oc3c(Cl)cc(-n4nc(N)c(=O)[nH]c4=O)cc3Cl)n[nH]c2=O)c1F [Compound 64, 6-amino-2-(3,5-dichloro-4-[[5-(2-fluoro-3-methylphenyl)-6-oxo-1H-pyridazin-3-yl]oxy]phenyl)-4H-1,2,4-triazine-3,5-dione]
< 50 | 1000 to 10000 | < 50 | < 50 | 250 to 1000 | < 50 | > 75 | 50 to 250 | Nc1nn(-c2cc(Cl)c(Oc3cc(Cc4ccccc4)c(=O)[nH]n3)c(Cl)c2)c(=O)[nH]c1=O [Compound 65, 6-amino-2-[4-[(5-benzyl-6-hydroxypyridazin-3-yl)oxy]-3,5-dichlorophenyl]-4H-1,2,4-triazine-3,5-dione]
50 to 75 | 1000 to 10000 | 50 to 250 | 50 to 75 | 250 to 1000 | < 50 | > 75 | 1000 to 10000 | Cc1cc(-n2nc(C#N)c(=O)[nH]c2=O)cc(C)c1Cc1cnc2[nH]cc(C(C)C)c2n1 [Compound 66, 2-[4-[(7-isopropyl-5H-pyrrolo[2,3-b]pyrazin-2-yl)methyl]-3,5-dimethyl-phenyl]-3,5-dioxo-1,2,4-triazine-6-carbonitrile]
50 to 75 | 50 to 250 | < 50 | 50 to 75 | 50 to 250 | < 50 | > 75 | < 50 | Nc1nn(-c2cc(Cl)c(Oc3cc(-c4cccc(Cl)c4)c(=O)[nH]n3)c(Cl)c2)c(=O)[nH]c1=O [Compound 68, 6-Amino-2-(3,5-dichloro-4-((5-(3-chlorophenyl)-6-oxo-1,6-dihydropyridazin-3-yl)oxy)phenyl)-1,2,4-triazine-3,5(2H,4H)-dione]
50 to 75 | 50 to 250 | 50 to 250 | < 50 | 250 to 1000 | < 50 | 50 to 75 | 50 to 250 | Nc1nn(-c2cc(Cl)c(Oc3cc(-c4cccc(F)c4)c(=O)[nH]n3)c(Cl)c2)c(=O)[nH]c1=O [Compound 69, 6-Amino-2-(3,5-dichloro-4-((5-(3-fluorophenyl)-6-oxo-1,6-dihydropyridazin-3-yl)oxy)phenyl)-1,2,4-triazine-3,5(2H,4H)-dione]
50 to 75 | 50 to 250 | < 50 | < 50 | 50 to 250 | < 50 | > 75 | < 50 | CCc1cccc(-c2cc(Oc3c(Cl)cc(-n4nc(N)c(=O)[nH]c4=O)cc3Cl)n[nH]c2=O)c1 [Compound 71, 6-Amino-2-(3,5-dichloro-4-((5-(3-ethylphenyl)-6-oxo-1,6-dihydro-pyridazin-3-yl)oxy)phenyl)-1,2,4-triazine-3,5(2H,4H)-dione]
> 75 | 250 to 1000 | 50 to 250 | < 50 | 250 to 1000 | 50 to 75 | > 75 | 50 to 250 | CC(C)(C)c1cc(Oc2c(Cl)cc(-n3nc(N)c(=O)[nH]c3=O)cc2Cl)n[nH]c1=O [Compound 73, 6-Amino-2-(4-((5-(t-butyl)-6-oxo-1,6-dihydropyridazin-3-yl)oxy)-3,5-dichlorophenyl)-1,2,4-triazine-3,5(2H, 4H)-dione]
< 50 | > 10000 | 1000 to 25000 | 50 to 75 | 1000 to 25000 | < 50 | < 50 | > 10000 | CC1(C)C(=O)Nc2nnc(Oc3c(Cl)cc(-n4nc(C#N)c(=O)[nH]c4=O)cc3Cl)cc21 [Compound 74, 2-[3,5-dichloro-4-[(5,5-dimethyl-6-oxo-7H-pyrrolo[2,3-c]pyridazin-3-yl)oxy]phenyl]3,5-dioxo-1,2,4-triazine-6-carbonitrile]
> 75 | 250 to 1000 | < 50 | > 75 | 50 to 250 | > 75 | > 75 | < 50 | CC(C)c1n[nH]c2nnc(Oc3c(Cl)cc(-n4nc(N)c(=O)[nH]c4=O)cc3Cl)cc12 [Compound 75, 6-amino-2-(3,5-dichloro-4-((3-isopropyl-1H-pyrazolo[3,4-c]pyridazin-5-yl)oxy)phenyl)-1,2,4-triazine-3,5 (2H,4H)-dione]
< 50 | > 10000 | 1000 to 25000 | < 50 | > 25000 | < 50 | 50 to 75 | 250 to 1000 | CC1(C)CC(c2cc(Oc3c(Cl)cc(-n4nc(N)c(=O)[nH]c4=O)cc3Cl)n[nH]c2=O)CCO1 (centres unmarked) [Compound 76, 6-Amino-2-(3,5-dichloro-4-((5-(2,2-dimethyltetrahydro-2H-pyran-4-yl)-6-oxo-1,6-dihydropyridazin-3-yl)oxy)phenyl)-1,2,4-triazine-3,5(2H, 4H)-dione]
